The values that follow come from patent publication US4751224A, “Treatment of metastasis” (Brown University Research Foundation, priority 1986, dated 1988).

The subject of data set [1] is human platelet aggregation induced by B16-F10 melanoma cells. Briefly: B16-F10 melanoma cell-induced human platelet aggregation in vitro (light transmission in platelet-rich plasma). Type of data set: cell-based. How it is done: A mouse melanoma subline, B16-F10, (highly metastatic to the lungs) was obtained from EG & G Mason Research Institute, Worcester, MA, and adapted to growth in cell culture. The cultured cells were harvested by 1 min of trypsinization (0.25% trypsin-0.1% EDTA) or with the use of a rubber policeman, washed gently three times with Hank's balanced salts solution (HBBS, free of Ca^++ and Mg^++). […] Freshly drawn whole blood from healthy adult human donors was anticoagulated with heparin (5 units/ml). […] Platelet-rich plasma (PRP) was separated by centrifugation of the whole blood and platelet aggregation was measured in PRP by recording the increase in light transmission after the addition of the tumor cells.
Washed B16-F10 cell suspensions (2×10^7 /ml) were treated with potato apyrase (1 unit/ml) for about 5 min to degrade exogenous adenine nucleotides. Fifty microliters of the cell suspension was then added to the platelet-rich plasma after an incubation of 5 min with (A) 5 microliters DMSO (10% in saline) (Control) or (B) 5 microliters forskolin (200 micro Molars in DMSO 10% in saline). Final concentration of forskolin in PRP (500 microliters) was 2 micromolars.
The in vitro experimental procedure of Example I above was repeated using a combination of forskolin and oxagrelate. In this example the cell suspension was added to platelet-rich plasma incubated with a mixture of forskolin and oxagrelate.

The subject of another data set is B16-F10 melanoma cells. The data set is described as follows: pulmonary tumor colonization after tail vein injection of B16-F10 cells. Type of data set: in vivo, mouse (C57BL/6). How it is done: (§1) Washed B16-F10 tumor cells (2 or 3×10^5) in 100 microliters Hanks balanced salts solution were injected from the tail vein 60 min (Exp. 1) or 30 min (Exp. 2, 3) after i.p. injection of 200 microliters DMSO (20 percent in saline) in control group; or forskolin (5 mM) prepared in DMSO (100 percent) and diluted to 1 mM with saline just before injection. The mice were sacrificed after 9 days (Exp. 1) or 14 days (Exp. 2, 3) and the lungs removed for examination. The tumor foci were counted with the help of a dissecting microscope.
The in vivo experimental procedure of Example II above was also repeated using a combination of forskolin and oxagrelate.

Data set [2] concerns mice. The data set is described as follows: overt toxicity observation in mice after i.p. administration. It counts as in vivo, mouse (C57BL/6). The conditions noted are these: 82 micrograms/mouse. As for the experimental part: as §1, with “microscope. […] FIG. 2 presents typical specimens of lungs from untreated and forskolin-treated mice of experiments 2 and 3.” for “microscope.”

For data set [3], the system named is B16 amelanotic melanoma cells. The data set is described as follows: PGI2 reduction of pulmonary tumor colonization by tail vein injected B16 amelanotic melanoma cells (Honn et al.). The conditions noted are these: PGI2 (Honn) compared with forskolin (applicant). It counts as in vivo, mouse. The source says:
Since tumor cell-platelet interactions play a role in tumor metastasis, several laboratories have examined anticoagulants and anti-aggregating agents, such as heparin, warfarin (Hagmar and Norrby, Vol. 5 Int. J. Cancer, pp. 72-84, [1970]; Lione and Bosmann, Vol. 2 Cell Biol. Int. Res., pp. 81-86 [1972]; Hoover and Ketcham, Vol. 35 Cancer, pp. 5-14 [1975]); aspirin (Gasic et al., Lancet II, pp. 932-933 [1972]; Wood and Hilgard, Lancet II, pp. 1416-1416 [1972]; Hilgard et al., Vol. 86 Z. Krebsforsch., pp. 243-250 [1976]) and dipyridamole (Hilgard in Interaction of Platelets and Tumor Cells, pp. 143-158, Jameson [ed.] [1982]; Ambrus et al. in Platelets: A Multidisciplinary Approach, pp. 467-48, de Gaetano [ed.] [1982]) to reduce the incidence of tumor metastasis without treating the tumor per se in experimental animal models. However, the results of many of these studies were inconclusive.

Data set [4] deals with membrane adenylate cyclase. Particulars: human platelets, via stimulation of membrane adenylate cyclase; cited from earlier work.
In data set [5] the test system is platelet aggregation. The conditions noted are these: induced by a wide variety of aggregation stimulators; cited from earlier work.
In data set [6] the test system is mice. Particulars: cited from earlier work.
Data set [7] relates to platelet aggregation. Briefly: inhibition of platelet aggregation in vitro. It counts as cell-based, human. Particulars: molar basis, PGI2 compared to forskolin.
The subject of data set [8] is B16 amelanotic melanoma cells. The conditions noted are these: cited from earlier work.

Entries after “also recorded” stand apart in the source; their conditions may differ. Like-named read-outs stand apart in the source and are kept apart here.

On to `CCOC(=O)c1c(C)cc2c(CO)nnc(O)c2c1C` [oxagrelate], for which the inhibition (usually the change of the read-out against control, counted positive when it falls) at 20 µM in data set [1] (Homo sapiens, B16-F10, oxagrelate 20 micromolar alone, read-out: inhibition of tumor cell-induced platelet aggregation) is 20%.

Take `C=C[C@@]1(C)CC(=O)[C@]2(O)[C@@]3(C)[C@@H](O)CCC(C)(C)[C@@H]3[C@H](O)[C@H](OC(C)=O)[C@@]2(C)O1` [forskolin, 7 beta-acetoxy-8,13-epoxy-1 alpha,6 beta,9 alpha trihydroxy-labd-14-en-11-one]: the inhibition at 0.4 µM in data set [1] (Homo sapiens, B16-F10, forskolin 0.4 micromolar alone, read-out: inhibition of tumor cell-induced platelet aggregation) turned out to be 20%. For the same compound, in [1] (forskolin 2 micromolar, 5 min preincubation of PRP, B16-F10 2×10^6/ml), the “melanoma cell-induced human platelet aggregation, inhibition” value is recorded as “strongly inhibits; also recorded: strongly blocked”. In addition, the “in vitro inhibitory effect in combination with 2-fluoroadenosine” value in data set [1] (forskolin combined with 2-fluoroadenosine (F-Ado)) is listed as “potentiated”. Also, in data set [1] (forskolin combined with prostaglandin E), the “in vitro inhibitory effect in combination with prostaglandin E” value is listed as “potentiated”. Moreover, the “Median number of pulmonary tumor foci” value with B16-F10 melanoma cells (Experiment 1, 2×10^5 cells/mouse, i.p. 60 min before, 9 days, control median 189) was 3.1; in the data set on B16-F10 melanoma cells (Experiment 2, 3×10^5 cells/mouse, i.p. 30 min before, 14 days, control median 210), 1; in the data set with B16-F10 melanoma cells (Experiment 3, 3×10^5 cells/mouse, i.p. 30 min before, 14 days, control median >600 (estimated)), 149.5. In addition, in the data set with B16-F10 melanoma cells (Experiment 3, 3×10^5 cells/mouse, i.p. 30 min before, 14 days, mice about 5 weeks old, control >600 (estimated)), the “No. of pulmonary tumor foci (per mouse)” value was 219,250,281. The “appearance of tumor foci (dissecting microscope)” value in the data set on B16-F10 melanoma cells (experiments 2 and 3, compared with untreated mice) is “smaller and more superficial”. The “direct effect on melanoma cells” value with B16-F10 melanoma cells (forskolin i.p. prior to tail vein injection of cells) is on record as “without effecting the melanoma cells directly”. Moreover, the “overt signs of toxicity” value in the data set on mice [2] is recorded as “No overt signs of toxicity”. Besides, in [3], the “potency as inhibitor of pulmonary tumor metastasis, PGI2 versus forskolin” value is “similar”. In data set [4], the “increase of intracellular concentration of cyclic AMP” value was “several-fold”. Besides, in the data set on platelet aggregation [5], the “inhibition of human platelet aggregation” value is listed as “blocks human platelet aggregation”. Moreover, the “LD 50” value in the data set on mice [6] (i.p.) is given as 105 mg/kg; in the data set on mice [6] (per OS), 3,100 mg/kg.

On to `CCCCC[C@H](O)/C=C/[C@@H]1[C@H]2C/C(=C/CCCC(=O)O)O[C@H]2C[C@H]1O` [PGI2, prostacyclin], for which the “potency in inhibiting platelet aggregation in vitro relative to forskolin” value in the data set with platelet aggregation [7] was “several hundred-fold more potent”. Further, the “potency as inhibitor of pulmonary tumor metastasis, PGI2 versus forskolin” value in [3] is reported as “similar”. The “decrease in pulmonary tumor foci” value in data set [8] (PGI2 50-200 micrograms/mouse (Honn)) is “greater than 50%”. Also, in data set [8] (PGI2, i.v. injection (Honn et al. 1981)), the “pulmonary tumor colonization” value is reported as “reduces pulmonary tumor colonization”.
